Measured values taken from the supplement of paper PMC10307832.

What was measured:
Assay in all cases: relative viability (nuclei count vs DMSO), 5 days (fraction); higher = more cells survive
[1] = tested on: EPLC-272H
Procedure, shortened: (§1)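 Lung cancer cell lines in 1536-well plates got either a single drug or a fixed anchor-drug dose together with five library-drug doses (not always all listed) in √10 steps, by pin tool, on the day after seeding. Nuclei were counted after 5 days, and relative viability is the treated-to-vehicle ratio of nuclei counts. Values are medians of duplicate plates.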

[2] = tested on: HARA
Procedure, shortened: as §1

[3] = tested on: NCI-H1915
Procedure, shortened: as §1

[4] = tested on: ABC-1
Procedure, shortened: as §1

[5] = tested on: NCI-H1355
Procedure, shortened: as §1

[6] = tested on: COR-L23
Procedure, shortened: as §1

[7] = tested on: PC-14
Procedure, shortened: as §1

[8] = tested on: UMC-11
Procedure, shortened: as §1

[9] = tested on: LU99A
Procedure, shortened: as §1

[10] = tested on: NCI-H1651
Procedure, shortened: as §1

[11] = tested on: NCI-H358
Procedure, shortened: as §1

[12] = tested on: NCI-H2347
Procedure, shortened: as §1

[13] = tested on: HCC-44
Procedure, shortened: as §1

[14] = tested on: LC-2-ad
Procedure, shortened: as §1

[15] = tested on: HOP-62
Procedure, shortened: as §1

[16] = tested on: HCC-15
Procedure, shortened: as §1

[17] = tested on: NCI-H1993
Procedure, shortened: as §1

[18] = tested on: NCI-H2023
Procedure, shortened: as §1

[19] = tested on: NCI-H2085
Procedure, shortened: as §1

[20] = tested on: SW 1573
Procedure, shortened: as §1

[21] = tested on: NCI-H650
Procedure, shortened: as §1

[22] = tested on: NCI-H838
Procedure, shortened: as §1

[23] = tested on: NCI-H2126
Procedure, shortened: as §1

Question: Which results are given for COc1nc(C)cnc1NS(=O)(=O)c1cccnc1-c1ccc(-c2nnco2)cc1 [Zibotentan] + Cc1nc(NC(=O)N2CCC[C@H]2C(N)=O)sc1-c1ccnc(C(C)(C)C(F)(F)F)c1 [Alpelisib] (partner 2 µM)?
Answer: relative viability ([1]; first compound 0.08 µM): 0.805; relative viability ([1]; first compound 0.253 µM): 0.908; relative viability ([1]; first compound 0.8 µM): 0.979; relative viability ([1]; first compound 2.53 µM): 0.943; relative viability ([2]; first compound 0.08 µM): 0.856; relative viability ([2]; first compound 0.253 µM): 0.764; relative viability ([2]; first compound 0.8 µM): 0.686; relative viability ([2]; first compound 2.53 µM): 0.89; relative viability ([3]; first compound 0.08 µM): 1.14; relative viability ([3]; first compound 0.253 µM): 1.1; relative viability ([3]; first compound 0.8 µM): 1.09; relative viability ([3]; first compound 2.53 µM): 1.03; relative viability ([4]; first compound 0.08 µM): 1.1; relative viability ([4]; first compound 0.253 µM): 0.689; relative viability ([4]; first compound 0.8 µM): 1.11; relative viability ([4]; first compound 2.53 µM): 1.07; relative viability ([5]; first compound 0.08 µM): 0.942; relative viability ([5]; first compound 0.253 µM): 0.898; relative viability ([5]; first compound 0.8 µM): 0.825; relative viability ([5]; first compound 2.53 µM): 0.794; relative viability ([6]; first compound 0.08 µM): 0.847; relative viability ([6]; first compound 0.253 µM): 0.655; relative viability ([6]; first compound 0.8 µM): 0.831; relative viability ([6]; first compound 2.53 µM): 0.824; relative viability ([7]; first compound 0.08 µM): 0.98; relative viability ([7]; first compound 0.253 µM): 0.872; relative viability ([7]; first compound 0.8 µM): 1.06; relative viability ([7]; first compound 2.53 µM): 0.944; relative viability ([8]; first compound 0.08 µM): 0.861; relative viability ([8]; first compound 0.253 µM): 0.961; relative viability ([8]; first compound 0.8 µM): 0.925; relative viability ([8]; first compound 2.53 µM): 0.971; relative viability ([9]; first compound 0.08 µM): 0.516; relative viability ([9]; first compound 0.253 µM): 0.58; relative viability ([9]; first compound 0.8 µM): 0.545; relative viability ([9]; first compound 2.53 µM): 0.58; relative viability ([10]; first compound 0.08 µM): 0.882; relative viability ([10]; first compound 0.253 µM): 0.88; relative viability ([10]; first compound 0.8 µM): 0.88; relative viability ([10]; first compound 2.53 µM): 1.04; relative viability ([11]; first compound 0.08 µM): 1; relative viability ([11]; first compound 0.8 µM): 0.891; relative viability ([11]; first compound 2.53 µM): 0.848; relative viability ([12]; first compound 0.08 µM): 1.15; relative viability ([12]; first compound 0.253 µM): 1.04; relative viability ([12]; first compound 0.8 µM): 1.09; relative viability ([12]; first compound 2.53 µM): 1.08; relative viability ([13]; first compound 0.08 µM): 0.932; relative viability ([13]; first compound 0.253 µM): 0.768; relative viability ([13]; first compound 0.8 µM): 0.842; relative viability ([13]; first compound 2.53 µM): 0.842; relative viability ([14]; first compound 0.08 µM): 0.852; relative viability ([14]; first compound 0.253 µM): 0.869; relative viability ([14]; first compound 0.8 µM): 0.92; relative viability ([14]; first compound 2.53 µM): 1.03; relative viability ([15]; first compound 0.08 µM): 1.01; relative viability ([15]; first compound 0.253 µM): 1.03; relative viability ([15]; first compound 0.8 µM): 1.12; relative viability ([15]; first compound 2.53 µM): 0.911; relative viability ([16]; first compound 0.08 µM): 0.954; relative viability ([16]; first compound 0.253 µM): 0.884; relative viability ([16]; first compound 0.8 µM): 0.869; relative viability ([16]; first compound 2.53 µM): 0.844; relative viability ([17]; first compound 0.253 µM): 0.679; relative viability ([17]; first compound 0.8 µM): 0.652; relative viability ([17]; first compound 2.53 µM): 0.766; relative viability ([18]; first compound 0.08 µM): 0.632; relative viability ([18]; first compound 0.253 µM): 0.485; relative viability ([18]; first compound 0.8 µM): 0.658; relative viability ([18]; first compound 2.53 µM): 0.591; relative viability ([19]; first compound 0.08 µM): 0.93; relative viability ([19]; first compound 0.253 µM): 0.939; relative viability ([19]; first compound 0.8 µM): 1.06; relative viability ([19]; first compound 2.53 µM): 0.932; relative viability ([20]; first compound 0.08 µM): 0.726; relative viability ([20]; first compound 0.253 µM): 0.639; relative viability ([20]; first compound 0.8 µM): 0.775; relative viability ([20]; first compound 2.53 µM): 0.758; relative viability ([21]; first compound 0.08 µM): 1.13; relative viability ([21]; first compound 0.253 µM): 1.06; relative viability ([21]; first compound 0.8 µM): 1.03; relative viability ([21]; first compound 2.53 µM): 1.16; relative viability ([22]; first compound 0.08 µM): 0.957; relative viability ([22]; first compound 0.253 µM): 1.01; relative viability ([22]; first compound 0.8 µM): 0.956; relative viability ([22]; first compound 2.53 µM): 1.05; relative viability ([23]; first compound 0.08 µM): 0.827; relative viability ([23]; first compound 0.253 µM): 0.755; relative viability ([23]; first compound 0.8 µM): 0.726; relative viability ([23]; first compound 2.53 µM): 0.762
